Results taken from PubChem BioAssay AID493130 (Broad Institute, 2011).
Inconclusive results are not listed. Calls of active or inactive are those of the source.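 The calls were made as follows: active = signal-lowering compounds whose fitted half-maximal concentration is at most ten times their highest tested dose; inconclusive = flat fit between -30 and -70%, or poor fit; inactive = flat within 30%, signal rising, or potency beyond limit.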

What follows are compounds tested against POS-1 (Caenorhabditis elegans) binding to mex-3 RNA (assay: inhibitors of POS-1/mex-3 RNA binding, dose response, counter-screen for MEX-5 RNA-binding inhibitor project, biochemical, fluorescence polarization, cherry-picked samples, set 2 (AID 493130;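 also: POS-1 as maltose binding protein fusion made in E. coli with FITC RNA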)). Conditions: POS-1/mex-3 RNA fluorescence polarization, 1 h.

Row | SMILES | AC50
1 | O=c1[nH]c(/C=C/c2cccc3ccccc23)nc2ccccc12 | > 10 µM (inactive)
2 | CC(=O)Nc1ccc(S(=O)(=O)NNC(=O)C(=O)NNc2ccccn2)cc1 | > 10 µM (inactive)
3 | COc1ccc(NC(=S)NNc2ccc(S(=O)(=O)Nc3ccccc3C(=O)O)cc2[N+](=O)[O-])cc1 | 4.53 µM
4 | Cc1oc2c(cc(NS(=O)(=O)c3ccc(C(C)C)cc3)c3ccccc32)c1C(=O)O | 10.4 µM
5 | Cc1cccc(N2C(=O)NC(=O)/C(=C/c3cc4c(cc3[N+](=O)[O-])OCO4)C2=O)c1 | 2.94 µM
6 | CN1CC=C2C(C#N)=C(N)C(C#N)(C#N)[C@H](c3cccs3)[C@H]2C1 | 6.12 µM
7 | COc1ccc(-c2onc3ccc(C(C)=O)cc23)cc1 | < 0.08 µM
8 | CCn1c(SCc2nc3sc(C(=O)O)c(C)c3c(=O)[nH]2)nc2ccccc21 | 10.3 µM
9 | O=[N+]([O-])c1ccc(NCc2ccccc2)c2nonc12 | 0.434 µM
10 | O=C1C(Cl)=C(NC(=O)c2ccccc2)C(=O)C(Cl)=C1NC(=O)c1ccccc1 | 10.2 µM
11 | Brc1ccc(C2=CC(c3cccs3)n3ncnc3N2)cc1 (stereo not drawn) | 1.4 µM
12 | CCCCOc1ccc2c(c1)/C(=C(\C(Cl)=C(Cl)Cl)[N+](=O)[O-])N2 | 8.54 µM
13 | COc1ccc(Cn2c(O)c(/C=N/NC(=O)c3ccccc3O)c(=O)[nH]c2=O)cc1 | 6.22 µM
14 | O=c1nc2c(O)cccn2c2c1c(=O)[nH]c1ccccc12 | 2.46 µM

Same assay, conditions: POS-1/mex-3 RNA fluorescence polarization, 1 h; at 10 µM (top of the series)

Row | SMILES | activity change, negative = inhibition
15 | CCc1ccc(S(=O)(=O)/N=C2\C=C(Nc3ccc(C(=O)O)cc3)C(=O)c3ccccc32)cc1 | inactive
16 | CN(C)c1ncnc2c1NC1=C(S2)C(=NCCCC(=O)O)CC(C)(C)C1 | inactive
17 | COCCNc1nnc(SCC(=O)NNC(=O)c2ccc([N+](=O)[O-])cc2)s1 | inactive
18 | Cc1ccc2c(c1)-c1ccccc1S(=O)(=O)N2 | inactive
19 | O=C(O)CC1S/C(=N/N=C/c2ccc(-c3ccccc3[N+](=O)[O-])o2)NC1=O (stereo not drawn) | inactive
20 | CNC(=O)c1c(NC(=O)c2ccc(S(=O)(=O)N(C)c3ccccc3)cc2)sc2c1CCN(C(C)C)C2 | inactive
21 | CN1C(=O)/C(=C/c2cn(CC(=O)N3CCCCC3)c3ccccc23)c2ccccc21 | inactive
22 | CC1(OC(=O)c2ccc(Cl)nc2)C(=O)C=C2C=C(c3ccc(C#N)cc3)OC=C2C1=O (stereo not drawn) | inactive
23 | COc1cccc2cc(-c3nc(-c4cccs4)cs3)c(=O)oc12 | inactive
24 | COc1ccc(OC)c(Nc2nc(-c3ccc(O)c(O)c3)cs2)c1 | inactive
25 | COc1ccc(CCn2c(=N)c(C(=O)NCC3CCCO3)cc3c(=O)n4cccc(C)c4nc32)cc1 (stereo not drawn) | inactive
26 | COc1ccc(NC(=O)/C=C/c2cccc(C(F)(F)F)c2)cn1 | inactive
27 | COc1ccccc1C(=O)NNC(=O)c1csc(N2CCOCC2)n1 | inactive
28 | CC[N+](C)(CC)CCCOC(=O)C(O)(c1ccccc1)C1CCCCC1 (stereo not drawn) | inactive
29 | CCOC(=O)C(=NC(C)C)NNc1cc(Cl)ccc1Cl | inactive
30 | CCC(=O)N(CC)C1=C(O)c2ccccc2C(=O)C1=O | inactive
31 | O=C(NC1CCSc2ccccc21)c1cccc(Br)c1 (stereo not drawn) | inactive
32 | CNC(=O)/C(C#N)=C/c1ccc(-c2ccc(Cl)cc2)o1 | inactive
33 | CC(=O)Nc1ccc(/C=N\NC(=O)CNS(=O)(=O)c2ccc([N+](=O)[O-])cc2)cc1 | inactive
34 | COc1ccc(C(=O)N2C(=S)NC(=O)/C2=C\c2ccc(C)cc2)cc1 | inactive
35 | CCOC(=O)NC(=O)COC(=O)c1ccc(Sc2ncn[nH]2)c([N+](=O)[O-])c1 | inactive
36 | Cn1c(C2=C(O)CN(c3ccccc3)C2=N)nc2ccccc21 | inactive
37 | Cc1c(C#N)c(O)n(CCO)c(=O)c1N=Nc1ccccc1 | inactive
38 | O=C(O)c1cc(-c2ccco2)nc2cc3ccccc3cc12 | inactive
39 | COc1ccc(N/C=C/C(=O)c2ccc3c(c2)OCO3)cc1OC | inactive
40 | Cc1c(C(=O)O)c(C(=O)O)nc2ccc(N3CCOCC3)cc12 | inactive
41 | CC(=O)N1CCc2c(sc(NC(=O)C3CCCN3S(=O)(=O)c3cccs3)c2C#N)C1 (stereo not drawn) | inactive

Row | SMILES | activity change, negative = inhibition
42 | Oc1ccc(C2C=C(c3ccc(F)cc3)Nc3ncnn32)cc1 (stereo not drawn) | inactive
43 | CC1=C(C(=O)OCc2ccccc2)C(c2ccc(N(C)C)cc2)NC(=O)N1 (stereo not drawn) | inactive
44 | CCOc1cc(/C=N/Nc2nc(=O)[nH]nc2C)ccc1O | inactive
45 | CCCCN(C(=O)c1ccc([N+](=O)[O-])o1)c1c(N)n(CCCC)c(=O)[nH]c1=O | inactive
46 | CN(N=Nc1ccc([N+](=O)[O-])cc1)c1ccccc1 | inactive
47 | CCCc1nc2ccccc2c(=O)n1/N=C/c1ccc(O)c(O)c1 | inactive
48 | N=C1C(c2nc3ccccc3[nH]2)=C(O)CN1c1ccc(F)cc1 | inactive
49 | O=C(N/N=C/c1cc2c(cc1Cl)OCO2)c1ccccn1 | inactive
50 | O=C(NNC(=O)c1ccccc1Cl)c1csc(N2CCOCC2)n1 | inactive
51 | COc1cc(/C=N/NC(=O)c2ccc(=O)[nH]n2)ccc1O | inactive
52 | Cc1nc2nc(-c3ccc(Cl)cc3)cn2nc1C | inactive
53 | COC(=O)COc1ccc2c(c1)O/C(=C\c1cccc([N+](=O)[O-])c1)C2=O | inactive
54 | CN(C)c1ccc(C(c2nnnn2CCOC(=O)Nc2ccc(Cl)cc2)N2CCOCC2)cc1 (stereo not drawn) | inactive
55 | O=c1c2ccccc2c(C=Nc2ccc(O)cc2)c(O)n1-c1nccs1 | inactive
56 | CCc1nc2ccccc2c(=O)n1/N=C/c1ccc(OC)cc1 | inactive
57 | N#CC(C(=O)NC1CC1)c1nc2ccccc2nc1N1CCN(C/C=C/c2ccccc2)CC1 (stereo not drawn) | inactive
58 | COc1ccccc1NCc1cc(=O)oc2c(C)c(O)ccc12 | inactive
59 | CN(C)c1ccc(/C=C(\C#N)C(=O)c2ccccc2)cc1 | inactive
60 | Cc1ccc(C(=O)N/N=C/c2ccc(-c3ccc(Br)cc3[N+](=O)[O-])o2)o1 | inactive
61 | COc1c(O)ccc(/C=C(\C#N)c2nc3ccccc3[nH]2)c1[N+](=O)[O-] | inactive
62 | COc1cc(OC)c2ccc(=O)oc2c1C(CC(=O)N1CCCC1)c1ccc(N(C)C)cc1 (stereo not drawn) | inactive
63 | Cc1cccc(C(=O)NNC(=O)c2ccco2)c1O | inactive
64 | O=C1c2cccc3c(Cl)ccc(c23)C(=O)N1O | inactive
65 | O=C(/C=C/c1ccc(O)c(O)c1)OC1C(O)CC(OC(=O)/C=C/c2ccc(O)c(O)c2)(C(=O)O)CC1O (stereo not drawn) | inactive
66 | O=C(O)c1ccc2c(c1)C(=O)/C(=C/c1ccccc1)C2=O | inactive
67 | Cc1c(CN2CCCC(C)C2)c(O)n(CCO)c(=O)c1C#N (stereo not drawn) | inactive
68 | COC(=O)c1ccccc1N=Nc1c(N)n[nH]c1N | inactive

Row | SMILES | activity change, negative = inhibition
69 | COc1ccc(-c2cn[nH]c2-c2ccc(O)cc2O)cc1OC | inactive
70 | CCOC(=O)Cc1csc(NC(=O)c2sc3nc4ccc(CC)cc4cc3c2N)n1 | inactive
71 | N=C(N)N=Nc1c(O)[nH]c2ccc(Br)cc12 | inactive
72 | O=c1oc2cc([N+](=O)[O-])ccc2nc1/C=C(\O)c1cccc(Br)c1 | inactive
73 | Cc1c(C#N)c(O)[nH]c(=O)c1N=Nc1ccc(S(N)(=O)=O)cc1 | inactive
74 | COc1ccccc1OCC(=O)NNC(=O)c1cnccn1 | inactive
75 | O=C(O)c1cc(-c2ccc(/C=c3\sc4nc5ccc(Br)cc5n4c3=O)o2)ccc1Cl | inactive
76 | CCc1nnc2c(N(C)C)nc3ccccc3n12 | inactive
77 | CC1=Nc2cccc3cccc(c23)N1C | inactive
78 | COC(=O)c1ccc(CC(=O)c2ccc(O)cc2O)o1 | inactive
79 | CC[n+]1c(/C=C/C=C/c2ccc(N(C)C)cc2)sc2ccccc21 | inactive
80 | Nc1nc(Cl)nc2ccc(Br)cc12 | inactive
81 | Cc1c(-c2ccc(F)cc2)nc(N)c(C#N)c1-c1ccco1 | inactive
82 | O=C(O)c1ccc2cccnc2c1O | inactive
83 | Cc1nc2ccc3nc(NC(=O)c4ccc5c(c4)OCCO5)sc3c2s1 | inactive
84 | COc1ccc(N=C2S/C(=C\c3ccc(N4CCOCC4)o3)C(=O)N2CCc2c[nH]c3ccccc23)cc1 | inactive
85 | N=c1c(C(=O)NCC2CCCO2)cc2c(=O)n3ccccc3nc2n1Cc1ccc(Cl)cc1 (stereo not drawn) | inactive
86 | CC1CN(c2nc3ccccc3nc2C(C#N)C(=O)NCc2ccc3c(c2)OCO3)CC(C)O1 (stereo not drawn) | inactive
87 | COc1ccc2ccccc2c1CNCc1ccccn1 | inactive
88 | CCOC(=O)c1cnc2c(N=Nc3ccccc3)c(N)nn2c1N | inactive
89 | CCOC(=O)c1cnc(SCC(=O)NNC(=O)c2ccco2)nc1N | inactive
90 | Cc1ccc(C(=O)N/C(=C\c2ccc(-c3ccc(Cl)cc3)o2)C(=O)NCCCN(C)C)cc1 | inactive
91 | CCOC(=O)C1=C(C)N=c2s/c(=C\c3cccn3C)c(=O)n2C1c1cccc(OC)c1OC (stereo not drawn) | inactive
92 | O=C(O)Cc1c[nH]c2cccc(O)c12 | inactive
93 | O=C(O)CCSc1nc2ccccc2n1Cc1ccccc1 | inactive
